Patent publication US10842845B2, “Oxytocin improves treatment of obstructive sleep apnea” (THE GEORGE WASHINGTON UNIVERSITY, priority 2014, dated 2020)
“Also recorded” adds a separate entry of the source.

How the values were obtained:
[1] = tested on: Patients recently diagnosed with OSA; experiment: Intranasal oxytocin in patients recently diagnosed with OSA (polysomnography, sleep quality score); format: in vivo, human; settings: 40 IU oxytocin intranasally about one hour prior to sleeping
Method: Patients recently diagnosed with OSA were recruited to test the effect of oxytocin administration on heart rate, apnea-hypopnea index, oxygen saturation, apnea duration, arousal index etc. The study is approved by the FDA (IND #120989). Patients were administered 40 IU of oxytocin intranasally about one hour prior to sleeping.
The following eight outcomes were compared in the same patients prior to and after administration with oxytocin: • basal heart rate before sleep (primary outcome) • mean changes in heart rate with apneic and hypopneic events (primary outcome) • apnea-hypopnea index (secondary outcome) • percentage of time spent by the patient with oxygen saturations: >90%, >80% but <90%, and <80% (secondary outcome) • duration of apneas • oxygen desaturation during apneas (expressed as adverse desaturations in percent oxygen) • numbers of arousals (expressed per hour) • sleep quality
The following information was recorded for each patient before and after the use of intranasal oxytocin:
• a. Basal heart rate before sleep • b. Apnea-hypopnea index • c. Mean changes in heart rate with apneic and hypopneic events • d. Percentage of time spent by the patient with oxygen saturations: >90%, >80% but <90%, and <80%. • e. Duration of apneas • f. Oxygen desaturation during apneas (expressed as adverse desaturations in percent oxygen) • g. Numbers of arousals (expressed per hour) • h. Sleep quality 3. Standard of care sleep study data using PSG: Polysomnography (PSG) monitors many body functions during sleep, including brain (EEG), eye movements (EOG), muscle activity or skeletal muscle activation (EMG), heart rhythm (ECG), respiratory airflow, thoracic and abdominal respiratory effort, body position, limb movement, and oxygen saturation using pulse oximetry. Recording and scoring was done according to the standards set by the American Academy of Sleep Medicine. 4. Sleep quality score: Patients were asked to rank their responses using the scale of 1-5 for a set of empirical factors: • 1—Strongly disagree • 2—Slightly disagree • 3—Neither agree nor disagree • 4—Slightly agree • 5—Strongly agree Empirical Factors: • I feel more refreshed than usual this morning • My quality of sleep last night was better than usual • I slept deeper than usual last night • I woke up fewer times than usual last night • I slept longer than usual last night • I feel better overall than usual this morning

[2] = tested on: rats; settings: acute icy infusion of oxytocin; cited from earlier work
[3] = same patients prior to and after administration

Q: With `CC[C@H](C)[C@@H]1NC(=O)[C@H](Cc2ccc(O)cc2)NC(=O)[C@@H](N)CSSC[C@@H](C(=O)N2CCC[C@H]2C(=O)N[C@@H](CC(C)C)C(=O)NCC(N)=O)NC(=O)[C@H](CC(N)=O)NC(=O)[C@H](CCC(N)=O)NC1=O` [oxytocin] as the molecule, how does the duration of apnea [1, 3] read?
A: reduces

Q: What about the number of arousals/hour [1, 3] of the same molecule?
A: decreases; also recorded: reduces

Q: What about the oxygen desaturation [1, 3] of the same molecule?
A: reduces

Q: What about the “sleep quality or sleep satisfaction” value ([1]; score on scale of 1-5 for empirical factors) of the same molecule?
A: improves

Q: And the “high-frequency activity in the electroencephalogram (EEG) within non-REMS” value [2]?
A: augmented

Q: What about the “non-REMS and REMS” value [2] of the same molecule?
A: transient reduction

Q: What about the sleep onset latency [2] of the same molecule?
A: delayed
